Measurements as given in PubChem BioAssay AID720512 (Broad Institute, 2013).
Active and inactive are the calls of the source. The rule behind the calls is not given here.

Target: Toxin B (TcdB) glycohydrolase, Clostridioides difficile 630
Test: TcdB glycohydrolase inhibitors, dose response, biochemical, cherry-pick, plate reader (AID 720512)
Conditions: recombinant TcdB glycohydrolase activity

SMILES | activity change, negative = inhibition (at 19.5 µM (top of the series)) | further results
COc1ccc(C2=NS(=O)(=O)N(C)C(C(=O)NC(C)c3ccccc3)=C2)cc1OC (stereo not drawn) | inactive | –
Cc1cc(C(=O)NNc2ccc(C)c(C)c2)no1 | – | AC50: 2.24 µM
Cc1ccc(NS(=O)(=O)c2ccc(C)c(NC(=S)NCCN3CCOCC3)c2)c(C)c1 | inactive | –
CC(Sc1nc2ccccc2n1C)C(=O)Nc1ccc(N2CCOCC2)cc1 (stereo not drawn) | inactive | –
CCOc1ccc(S(=O)(=O)NCc2ccccc2Cl)cc1C(N)=O | inactive | –
CNC(=O)C[C@H]1CC[C@@H]2[C@H](COc3ccc(NC(=O)Nc4ccc(C)cc4)cc3C(=O)N2C)O1 | inactive | –
O=[N+]([O-])c1ccc(/C=C/c2ccc3ccccc3n2)cc1 | inactive | –
COc1ccc(NS(=O)CCCc2ccccc2)cc1 (stereo not drawn) | inactive | –
COC(=O)C1=C(c2ccc(F)cc2OCc2ccccc2)C[C@@H]2CC[C@H]1N2C(=O)NCCOc1ccccc1 | inactive | –
C[C@@H]1CN([C@H](C)CO)S(=O)(=O)c2ccc(-c3ccncc3)cc2O[C@@H]1CN(C)Cc1ccc(Oc2ccccc2)cc1 | inactive | –
CCOC(=O)c1ccc(-n2c(CCC(=O)O)ccc2-c2ccc(F)cc2)cc1 | inactive | –
Cc1ccc(-c2cc(C(=O)NNC(=O)c3csc(N4CCOCC4)n3)c3ccccc3n2)cc1 | inactive | –
CNC(=O)C1CCN(S(=O)(=O)c2c(C)noc2/C=C/c2ccc(OC)cc2)CC1 | inactive | –
CC(=O)Nc1n[nH]c(=S)s1 | inactive | –
COc1cc(NC(=O)CSc2nc3[nH]ncc3c(=O)n2-c2ccccc2C)cc(OC)c1OC | inactive | –
Cc1cc(C(=O)Nc2ncc(C)s2)c2ccccc2n1 | inactive | –
Cc1ccc(-c2csc(NC(=O)/C=C/c3ccco3)c2C(=O)O)cc1 | inactive | –
Clc1ccc(/C=C/c2ncc[nH]2)c(Cl)c1 | inactive | –
Nc1ccc(C(=O)c2ccc3c(c2)OCCO3)cc1N | inactive | –
CN1c2ccc(-c3ccccc3)cc2[C@H]2[C@H](CCN2C(=O)CN2CCOCC2)[C@H]1CO | – | AC50: > 39 µM (inactive)
COCC(=O)N1CC[C@@H]2[C@H]1c1cc(-c3cccc(OC)c3)ccc1N(C)[C@H]2CO | – | activity change, negative = inhibition (at 21 µM (top of the series)): inactive
CCC(=O)Nc1ccc2c(c1)OC[C@H](C)N(C(=O)NC(C)C)C[C@H](C)[C@H](OC)CN(C)C2=O | inactive | –

SMILES | activity change, negative = inhibition (at 19.5 µM (top of the series)) | further results
O=C(Nc1sc2c(c1C(=O)O)CCCC2)c1ccc(Cl)cc1 | inactive | –
COc1ccc(CNC(=O)C2=CC(c3ccc(OC)cc3)=NS(=O)(=O)N2C)cc1 | inactive | –
Cc1ccc(C)c2sc(NC(=O)c3ccc(N4C(=O)CCC4=O)cc3)nc12 | inactive | –
COc1cc2ccccc2cc1C(=O)N/N=C/c1cccs1 | inactive | –
Cc1cc(SCC(=O)N/N=C/c2ccco2)nc2ccccc12 | inactive | –
CCN1CC(CNCc2cn(-c3ccc(OC)cc3)nc2-c2ccccc2Cl)CC1=O (stereo not drawn) | inactive | –
COc1ccc(-c2ccc3c(c2)[C@@H]2[C@@H](CCN2C(=O)C2CC2)[C@H](CO)N3C)cc1 | inactive | –
CSc1nc2c(c(=O)[nH]c(=O)n2C)n1Cc1ccccc1 | inactive | –
O=c1[nH]nc(-c2ccc(F)cc2)cc1Cc1ccccc1 | inactive | –
COc1ccc(NC(=O)c2cc(S(=O)(=O)N3CCc4ccccc43)cn2C)cc1OC | inactive | –
Cc1c(C(=O)c2ccccc2)c2ccccn2c1CCc1ccccn1 | inactive | –
O=C(NCCc1ccc(Cl)cc1)C1CCN(S(=O)(=O)c2ccc(Br)s2)CC1 | inactive | –
CNC(=O)N(O)C1N(/N=C/c2ccc(SC)cc2)C(=S)SC1(C)C (stereo not drawn) | inactive | –
CC(=O)Nc1ccc(Oc2nc(-c3ccccn3)nc3ccccc23)cc1 | inactive | –
CC(C)c1cc(CN2CCN(Cc3ccc(F)c(F)c3)C(CCO)C2)[nH]n1 (stereo not drawn) | inactive | –
CN1C(=O)NC(c2ccc(O)cc2)C2=C1CN(c1ccc(O)cc1)C2=O (stereo not drawn) | inactive | –
O=C(NN=Cc1cc(Br)c(O)c(Br)c1)c1ccccc1NS(=O)(=O)c1cccs1 | inactive | –
Nc1ccc(Sc2ccc(N)cc2)cc1 | inactive | –
COc1cc(/C=N/NC(=O)c2cccc([N+](=O)[O-])c2)ccc1O | – | AC50: > 39 µM (inactive)
O=C(Nc1ccc(N2CCOCC2)c(Cl)c1)c1ccc(Cl)cc1 | – | AC50: > 39 µM (inactive)
O=C(C[C@H]1C[C@@H]2c3cc(NC(=O)c4ccc5c(c4)OCO5)ccc3O[C@@H]2[C@@H](CO)O1)NCc1cccc(F)c1 | inactive | –
COc1ccc(C2=NS(=O)(=O)N(C)C(C(=O)NCc3ccc4c(c3)OCO4)=C2)cc1OC | inactive | –

SMILES | activity change, negative = inhibition (at 19.5 µM (top of the series)) | further results
CNC(=O)C1CCN(S(=O)(=O)c2c(C)noc2/C=C/c2cccc(C)c2)CC1 | inactive | –
O=C1COc2ccc(C(=O)COC(=O)CNS(=O)(=O)c3cccc(F)c3)cc2N1 | inactive | –
CCOC(=O)c1sc(=S)[nH]c1C | inactive | –
CCCCNS(=O)(=O)c1ccc(OCC(=O)OC)cc1 | inactive | –
CCOc1ccccc1/C=C/c1onc(C)c1S(=O)(=O)N1CCC(C(=O)NC(C)C)CC1 | inactive | –
O=C(CSc1nnc(-c2ccncc2)o1)N1CCCCCC1 | inactive | –
FC(F)(F)c1cc(CCN2CCNC[C@H]2Cc2cccc3ccccc23)cc(C(F)(F)F)c1 | – | AC50: > 39 µM (inactive)
CCC(=O)N1CC[C@@H]2[C@@H](CO)N(C)c3ccc(-c4ccccc4)cc3[C@@H]21 | – | AC50: > 42 µM (inactive)
O=C(NNc1ccc(-c2csnn2)cc1)c1ccccc1C(F)(F)F | inactive | –
O=C(COc1cccc(C(F)(F)F)c1)N1CCN(c2ccc(O)cc2)CC1 | – | activity change, negative = inhibition (at 10 µM (top of the series)): inactive
COc1ccccc1CNC(=O)CN(c1ccc(C)cc1)S(=O)(=O)c1c(C)n[nH]c1C | inactive | –
Cc1cc(N/N=C/c2ccncc2)nc2ccccc12 | inactive | –
CCn1c(C)nc2cc(C(=O)N/N=C/c3ccc(OC)c(O)c3)ccc21 | – | AC50: > 39 µM (inactive)
CCCNC(=O)C[C@H]1CC[C@@H]2[C@H](COc3ccc(NC(=O)c4ccc(Cl)cc4)cc3C(=O)N2C)O1 | – | AC50: > 39 µM (inactive)
O=c1c([N+](=O)[O-])cccn1Cc1ccc(F)cc1Cl | inactive | –
O=C(NCc1ccccc1)[C@@H]1CCCN1C(=O)[C@@H]1CCCN1C(=O)c1cccs1 | inactive | –
C[C@@H]1CN([C@@H](C)CO)C(=O)c2c(c3ccccc3n2C)-c2ccccc2CO[C@@H]1CN(C)C | – | activity change, negative = inhibition (at 21 µM (top of the series)): inactive
COc1cc(/C=C/C(=O)OCC(=O)NC(=O)NC(C)(C)C)ccc1O | – | AC50: > 39 µM (inactive)
COc1ccc(C=NNC(=O)c2cc(C)oc2C)cc1O | inactive | –
COCCn1c(NC(=S)NC(=O)C2CC2)cc(=O)[nH]c1=O | inactive | –
Nc1ccc(-c2nc3ccc(N)cc3o2)cc1 | inactive | –
CC(=O)C[C@H]1c2ccccc2S(=O)(=O)N1C1CCCCC1 | inactive | –

SMILES | activity change, negative = inhibition (at 19.5 µM (top of the series)) | further results
Cc1ccc(CNC(=O)Nc2cccc(C)c2)cc1 | inactive | –
COC(=O)[C@H]1C[C@@H]1[C@H](NP(=O)(c1ccccc1)c1ccccc1)c1ccccc1 | inactive | –
Cc1ccccc1NS(=O)(=O)c1ccc(OCC(=O)N2CCCCC2)cc1 | inactive | –
C=CCc1ccc(O)c(-c2ccc(O)c(CC=C)c2)c1 | inactive | –
COC(=O)c1ccc(C23CC4(C2)[C@H](CN(Cc2ccc(C(F)(F)F)cc2)[C@@H]4c2ccccc2)C3c2ccc(Cl)nc2)cc1 (stereo partly drawn) | inactive | –
O=c1c2oc3nc4c(cc3c2ncn1CCCc1ccccc1)CCCC4 | inactive | –
Oc1ccc(-c2nc3cnccn3c2Nc2ccc3c(c2)OCCO3)cc1 | inactive | –
CSc1cccc(NC(=O)CCc2ccccc2)c1 | inactive | –
CCOCCCNC(=O)C1CCN(S(=O)(=O)c2c(C)noc2/C=C\c2ccc(OC)cc2)CC1 | inactive | –
COc1ccc(/C=C(/C#N)C(=O)Nc2ccc(O)cc2)cc1C(=O)O | – | AC50: > 39 µM (inactive)
Cc1ccc(C2=NS(=O)(=O)N(C)C(C(=O)NCc3ccc(F)cc3)=C2)cc1 | inactive | –
CNC(=O)C1Cc2c(-c3ccccc3Oc3ccccc3)ccnc2O1 (stereo not drawn) | inactive | –
CC12CCC(=O)N1C(C(=O)OCc1c(Cl)cccc1Cl)CS2 (stereo not drawn) | inactive | –
NC(=O)c1ccc(NC(=O)CSc2nnc(C3CC3)n2C2CC2)cc1 | inactive | –
Cn1cc(S(=O)(=O)CC(=O)N2CCCc3ccccc32)c2ccccc21 | inactive | –
COc1ccc(C(=O)Nc2c(-c3cccs3)c(=O)c3ccccc3n2C)cc1 | inactive | –
c1ccc(SCc2nc3ccccc3s2)nc1 | inactive | –
COc1cc(/C=C/C(=O)OCC(=O)c2ccc[nH]2)ccc1O | inactive | –
COc1ccc(-c2ccc3c(c2)[C@H]2[C@H](CCN2C(=O)CN2CCOCC2)[C@@H](CO)N3)cc1 | inactive | –
CC1C(c2ccc3c(c2)OCO3)c2cc3c(cc2OC1N1CCOCC1)OCO3 (stereo not drawn) | inactive | –
C=CCn1c(C)cc(C(=O)COC(=O)CCc2cc(OC)c(OC)c(OC)c2)c1C | inactive | –
COc1cc(/C(C)=N/NC(=O)CSc2nnc(C)s2)ccc1O | inactive | –
